Results taken from patent US20120282187A1 (BOEHRINGER INGELHEIM INTERNATIONAL GMBH, priority 2008, published 2012).
Where “and” joins values, the source holds several entries; their conditions need not be identical. Equal entries are not always repeated. Entries after “also recorded” stand apart in the source; their conditions may differ. Where two headings read alike, the source gives them in different places.

Assays:
[1] = tested on: patients with atrial fibrillation at risk of stroke; experiment: RELY clinical trial (Randomized Evaluation of Long-term Anticoagulation Therapy); format: in vivo; conditions: for Stroke, systemic embolism, pulmonary embolism, myocardial infarction death or major bleed, Rate: net benefit
Excerpt: The primary study outcome was stroke or systemic embolism. The primary safety outcome was major hemorrhage. Secondary outcomes were stroke, systemic embolism and death. […] All other bleeding was considered minor.
All analyses were based on intention-to-treat.

AF patients [2] = conditions: SPORTIF III, cited from earlier work
AF patients [3] = conditions: SPORTIF V, cited from earlier work
AF patients [4] = conditions: ACTIVE W; cited from earlier work
[5] = tested on: patients who have nonvalvular atrial fibrillation; conditions: VKAs, such as warfarin; cited from earlier work
[6] = tested on: patients with chronic atrial fibrillation; experiment: PETRO phase 2 12-week dose finding study; format: in vivo, human; conditions: in vivo
Excerpt: Primary endpoints were bleeding events and changes in D-dimer. […] Minor bleeding was dose related.

[7] = Clinical pharmacokinetics and pharmacodynamics of dabigatran etexilate; format: in vivo
Excerpt: Ezekowitz M D, et al., Dabigatran with or without concomitant aspirin compared with warfarin alone in patients with nonvalvular atrial fibrillation (PETRO study), Am. […] The PETRO study is described below.
As noted above, management of warfarin therapy is complex, and failure to adequately monitor patients is associated with risk. […] It also interacts with many common foods, drugs and alcohol which alter its therapeutic effect, putting patients at risk of either a bleeding or thrombotic event. Therefore, warfarin therapy requires careful individualized dosing and frequent monitoring. The significant limitations of VKAs have created a need for an oral anticoagulant with a rapid onset of action, minimal drug interactions, and a predictable anticoagulation effect that needs no monitoring.
Peak levels are seen within 2-3 hours of oral administration. […] Steady-state is reached within 2-3 days with a twice daily regimen. […] The remainder undergoes conjugation with glucuronic acid to form acylglucuronides which are excreted primarily in the bile.

[8] = tested on: activated partial thromboplastin time (aPTT), ecarin clotting time, and thrombin clotting time; experiment: Clotting time tests
Excerpt: The anticoagulant effects parallel plasma concentrations.

[9] = tested on: patients with atrial fibrillation
Experimental: The PETRO-Ex study was conducted in 52 centers in the United States, Denmark, The Netherlands, and Sweden.
PETRO-Ex began while the PETRO study was ongoing and investigators were initially kept blinded to patient treatment group until PETRO was completed. Unblinding investigators to patient treatment was possible thereafter.
Data were summarized descriptively; no hypothesis was to be tested. Events were analyzed on the basis of the treatment at onset. Incidences were reported as of patients with events as well as normalized to 100 patient-years on the respective treatment.
Patients who were down titrated to 50 mg q.d. based on a glomerular filtration rate≦50 mL/min during PETRO were excluded from the long-term trial; patients down-titrated in other dose levels remained on the q.d. treatment at that dose.
The total exposure reflects both trials, PETRO and PETRO-Ex, together.

[10] = ximelagatran 36 mg b.i.d. vs warfarin
[11] = individual patients with LFT abnormalities, # = with concomitant Bilirubin elevation to >2xULN

SMILES: CC(=O)CC(c1ccccc1)c1c(O)c2ccccc2oc1=O (racemic) [Warfarin, 3-(α-acetonylbenzyl)4-hydroxycoumarin]
- mean time in therapeutic range ([1]; INR 2.0 to 3.0, method of Rosendaal): 64%
- Stroke, systemic embolism, pulmonary embolism, myocardial infarction death or major bleed, Rate ([1]; warfarin arm): 7.99 /100 Person Years
- ALT or AST >3xULN ([1]; warfarin arm): 2.1%
- ALT or AST >3xULN with concurrent bilirubin >2xULN ([1]; warfarin arm): 0.4%
- ALT or AST >3xULN with concurrent bilirubin >2xULN, number ([1]; warfarin arm): 22
- ALT or AST >3xULN, number ([1]; warfarin arm): 126
- Adverse Event: Arthralgia ([1]; warfarin arm): 5.5%
- Adverse Event: Arthralgia, number ([1]; warfarin arm): 328
- Adverse Event: Atrial fibrillation ([1]; warfarin arm): 5.4%
- Adverse Event: Atrial fibrillation, number ([1]; warfarin arm): 326
- Adverse Event: Back pain ([1]; warfarin arm): 5.5%
- Adverse Event: Back pain, number ([1]; warfarin arm): 331
- Adverse Event: Chest pain ([1]; warfarin arm): 5.7%
- Adverse Event: Chest pain, number ([1]; warfarin arm): 342
- Adverse Event: Cough ([1]; warfarin arm): 5.8%
- Adverse Event: Cough, number ([1]; warfarin arm): 345
- Adverse Event: Diarrhea ([1]; warfarin arm): 5.5%
- Adverse Event: Diarrhea, number ([1]; warfarin arm): 327
- Adverse Event: Dizziness ([1]; warfarin arm): 9.3%
- Adverse Event: Dizziness, number ([1]; warfarin arm): 555
- Adverse Event: Dyspepsia ([1]; warfarin arm): 1.4%
- Adverse Event: Dyspepsia, number ([1]; warfarin arm): 83
- Adverse Event: Dyspnoea ([1]; warfarin arm): 9.2%
- Adverse Event: Dyspnoea, number ([1]; warfarin arm): 550
- Adverse Event: Fatigue ([1]; warfarin arm): 5.9%
- Adverse Event: Fatigue, number ([1]; warfarin arm): 353
- Adverse Event: Nasopharyngitis ([1]; warfarin arm): 5.5%
- Adverse Event: Nasopharyngitis, number ([1]; warfarin arm): 327
- Adverse Event: Peripheral edema ([1]; warfarin arm): 7.6%
- Adverse Event: Peripheral edema, number ([1]; warfarin arm): 453
- Adverse Event: Upper respiratory tract infection ([1]; warfarin arm): 5.0%
- Adverse Event: Upper respiratory tract infection, number ([1]; warfarin arm): 297
- Adverse Event: Urinary tract infection ([1]; warfarin arm): 5.3%
- Adverse Event: Urinary tract infection, number ([1]; warfarin arm): 315
- All Death, Rate ([1]; warfarin arm): 4.13 /100 Person Years
- Any Major Bleeding, Rate ([1]; warfarin arm): 3.46 /100 Person Years
- Extracranial Bleeding, Rate ([1]; warfarin arm): 2.73 /100 Person Years
- First Hospitalization, Rate ([1]; warfarin arm): 27.5 /100 Person Years
- Intracranial Bleeding, Rate ([1]; warfarin arm): 0.72 /100 Person Years
- Major Bleeding, Life threatening, Rate ([1]; warfarin arm): 1.80 /100 Person Years
- Major Bleeding, Other Major, Rate ([1]; warfarin arm): 1.80 /100 Person Years
- Major gastro-intestinal Bleeding, Rate ([1]; warfarin arm): 1.03 /100 Person Years
- Major or Minor Bleeding, Rate ([1]; warfarin arm): 23.92 /100 Person Years
- Minor Bleeding, Rate ([1]; warfarin arm): 21.03 /100 Person Years
- Mortality rates (death from any cause) ([1]; warfarin arm): 4.13 % per year
- Myocardial Infarction, Rate ([1]; warfarin arm): 0.54 /100 Person Years
- Myocardial infarction rate ([1]; warfarin arm): 0.54 % per year
- Non-disabling Stroke Modified Rankin 0-2, Rate ([1]; warfarin arm): 0.58 /100 Person Years
- Pulmonary embolism, Rate ([1]; warfarin arm): 0.09 /100 Person Years
- Rates of hemorrhagic stroke ([1]; warfarin arm): 0.38 % per year
- Rates of major hemorrhage / major bleeding ([1]; warfarin arm): 3.46 % per year
- Reason for discontinuation: Gastrointestinal bleeding ([1]; warfarin arm): XXX (0.9) %
- Reason for discontinuation: Gastrointestinal disorders (including pain, vomiting and diarrhea) ([1]; warfarin arm): XXX (0.8) %
- Reason for discontinuation: Outcome event ([1]; warfarin arm): XXX (2.2) %
- Reason for discontinuation: Patient decision ([1]; warfarin arm): XXX (6.2) %
- Reason for discontinuation: SAE ([1]; warfarin arm): 1.6%
- Reason for discontinuation: SAE, number ([1]; warfarin arm): 95
- Stroke or systemic embolism, Rate ([1]; warfarin arm): 1.70 /100 Person Years
- Stroke, Hemorrhagic, Rate ([1]; warfarin arm): 0.38 /100 Person Years
- Stroke, Rate ([1]; warfarin arm): 1.58 /100 Person Years
- Study Drug Discontinuation At one year ([1]; warfarin arm): XXXX (10) %
- Study Drug Discontinuation At two years ([1]; warfarin arm): XXXX (19) %
- Vascular Death, Rate ([1]; warfarin arm): 2.69 /100 Person Years
- hepatobiliary disorders (AE) ([1]; warfarin arm): 2.2%
- hepatobiliary disorders (AE), number ([1]; warfarin arm): 132
- hepatobiliary disorders (SAE) ([1]; warfarin arm): 0.4%
- hepatobiliary disorders (SAE), number ([1]; warfarin arm): 25
- net benefit-risk outcome (major vascular events, major bleeding and death) rate ([1]; warfarin arm): 7.99 % per year
- rates of discontinuation at 2.5 years ([1]; warfarin arm): 19%
- stroke or systemic embolism (primary outcome) rate ([1]; warfarin arm): 1.70 % per year
- Study Drug Discontinuation At one year ([1]; warfarin arm, listed as warfarin): 10%
- Myocardial Infarction (AF patients [2]; Warfarin vs. Ximelagatran): 0.6% (warfarin)
- Stroke and systemic embolism (per 100 patient years) (AF patients [2]; [10]): 2.3% (warfarin)
- Myocardial Infarction (AF patients [3]; Warfarin vs. Ximelagatran): 1.4% (warfarin)
- Stroke and systemic embolism (per 100 patient years) (AF patients [3]; [10]): 1.2% (warfarin)
- Myocardial Infarction (AF patients [4]): 0.6% (warfarin)
- Stroke and systemic embolism (per 100 patient years) (AF patients [4]): 1.5% (warfarin)
- reduction of the risk of stroke compared to control [5]: 64%

SMILES: [H]/N=C(/N)c1ccc(NCc2nc3cc(C(=O)N(CCC(=O)O)c4ccccn4)ccc3n2C)cc1 [Dabigatran]
- change in D-dimer levels [6]: comparable to warfarin
- Myocardial Infarction, Rate ([1]; 110 mg b.i.d.): 0.73 /100 Person Years
- Rates of hemorrhagic stroke ([1]; 110 mg b.i.d.): 0.12 % per year
- Stroke, Ischemic or Unspecified, Rate ([1]; 110 mg b.i.d.): 1.35 /100 Person Years
- net benefit-risk outcome (major vascular events, major bleeding and death) rate ([1]; 110 mg b.i.d.): 7.37 % per year
- Myocardial Infarction, Rate ([1]; 150 mg b.i.d.): 0.74 /100 Person Years
- Rates of hemorrhagic stroke ([1]; 150 mg b.i.d.): 0.10 % per year
- net benefit-risk outcome (major vascular events, major bleeding and death) rate ([1]; 150 mg b.i.d.): 7.22 % per year
- rates of stroke and systemic embolism compared to warfarin ([1]; 150 mg b.i.d.): lower rates
- First Hospitalization, RR ([1]; Dabigatran 110 mg vs. Warfarin): 0.92
- Myocardial Infarction, RR ([1]; Dabigatran 110 mg vs. Warfarin): 1.35
- Non-disabling Stroke Modified Rankin 0-2, RR ([1]; Dabigatran 110 mg vs. Warfarin): 0.87
- Pulmonary embolism, RR ([1]; Dabigatran 110 mg vs. Warfarin): 1.26
- Stroke or systemic embolism, RR ([1]; Dabigatran 110 mg vs. Warfarin): 0.91
- Stroke, Hemorrhagic, RR ([1]; Dabigatran 110 mg vs. Warfarin): 0.31
- Stroke, Ischemic or Unspecified, RR ([1]; Dabigatran 110 mg vs. Warfarin): 1.12
- Stroke, RR ([1]; Dabigatran 110 mg vs. Warfarin): 0.92
- Stroke, Ischemic or Unspecified, RR ([1]; Dabigatran 150 mg vs. 110 mg): 0.68
- Stroke, RR ([1]; Dabigatran 150 mg vs. 110 mg): 0.70
- First Hospitalization, RR ([1]; Dabigatran 150 mg vs. Warfarin): 0.97
- Myocardial Infarction, RR ([1]; Dabigatran 150 mg vs. Warfarin): 1.38
- Non-disabling Stroke Modified Rankin 0-2, RR ([1]; Dabigatran 150 mg vs. Warfarin): 0.62
- Pulmonary embolism, RR ([1]; Dabigatran 150 mg vs. Warfarin): 1.61
- Stroke or systemic embolism, RR ([1]; Dabigatran 150 mg vs. Warfarin): 0.66
- Stroke, Hemorrhagic, RR ([1]; Dabigatran 150 mg vs. Warfarin): 0.26
- Stroke, Ischemic or Unspecified, RR ([1]; Dabigatran 150 mg vs. Warfarin): 0.76
- Stroke, RR ([1]; Dabigatran 150 mg vs. Warfarin): 0.64
- primary outcome compared to warfarin ([1]; both doses (110 mg and 150 mg b.i.d.)): non-inferior to warfarin
- Stroke, systemic embolism, pulmonary embolism, myocardial infarction death or major bleed, Rate ([1]; 110 mg b.i.d.): 7.37 /100 Person Years
- Stroke, systemic embolism, pulmonary embolism, myocardial infarction death or major bleed, Rate ([1]; 150 mg b.i.d.): 7.22 /100 Person Years
- plasma half life ([7]; after multiple doses): 12 to 17 h
- time to steady-state ([7]; human, in vivo): 2 to 3 days
- time to peak levels ([7]; oral administration): 2 to 3 h
- prolongation of activated partial thromboplastin time (aPTT), ecarin clotting time, and thrombin clotting time [8]: dose dependent prolongation
- fatal major bleeds, number ([9]; 150 mg b.i.d.): 4
- fatal major bleeds, number ([9]; 300 mg q.d.): 1
- fatal bleeding events ([9]; all doses): 0.5 % per year
- fatal major bleeds, number ([9]; all doses): five
- intracranial bleed rate ([9]; all doses): 0.4 % per year
- Final Outcome/Comment ([9]; individual patients with LFT abnormalities): Fatal; also recorded: Recovered
- LFT abnormality ALT/ULN [9, 11]: >5x (4×) and >5x^# (2×) and >3x (5×) and >3x^#
- LFT abnormality AST/ULN [9, 11]: >5x^# (4×) and >5x (4×) and >3x (5×)
- LFT abnormality resolved after stopping of dabigatran, number of cases ([9]; of the 16 on treatment cases): 5
- LFT abnormality resolved with continuation of dabigatran, number of cases ([9]; of the 16 on treatment cases): 10
